Marks after values point to notes of the source that are not given here.

Results on one compound are retold here after patent publication US10753924B2, “Method for selecting patients responsive for cancer treatments” (Mitogro OÜ, priority 2016, dated 2020).

The subject of experiment [1] is permeabilized MCF-7 cells. The experiment can be described thus: Citrate efflux from permeabilized MCF-7 cells (induction phase in Oroboros oxygraph, enzymatic citrate measurement). It counts as cell-based, human. The following applies: 4.56 × 10^6 cells/ml. As to the method:
Stock culture of MCF-7 cells was obtained from American Type Culture Collection (ATCC® Number: HTB-22™). The cells were grown as adherent monolayers in big T75 flasks (Greiner Bio-One GmbH, Germany) in low glucose (1.0 g/L) DMEM with stable L-glutamine (PAA Laboratories GmbH, Austria) that was supplemented with 1 mM Na-pyruvate (Gibco®, REF 11360-039), 10% heat-inactivated fetal bovine serum (FBS), […] human recombinant insulin (Gibco) and antibiotics: penicillin (100 U/ml), streptomycin (100 μg/ml) and gentamicin at a final concentration of 50 μg/ml. MCF-7 cells were grown and maintained at 37° C. in a humidified incubator containing 5% CO2 in air. The cells were sub-cultured at 2-3 day intervals.
MCF-7 cells were harvested from 5 T75 flasks (72 h after their seeding at a subculturing ratio of 1/5) by means of accutase (a cell detachment agent) treatment.
After detachment, the cell were washed twice with Mitomed-B solution (see Table 2), supplemented with lmg/ml bovine serum albumin (BSA) and 3-5 μM leupeptin (protease inhibitor) with centrifugation (on a Heraus “Biofuge primo R” refrigerated centrifuge equipped with a swing-out rotor, 150×g for 7 min at 4° C.). After washing, the pellet was resuspended in 2.5 ml of Mitomed-B (supplemented with lmg/ml BSA and 3-5 μM leupeptin) and the cells were stored on melting ice.
The experiments were carried out in an Oroboros oxygraph. Two parallel chambers on the same device were used. Reaction medium was Lahus-B as described below (Table 3).
Saponine concetration suitable for viability of MCF-7 cells was defined as 30 μg/ml. Malate, 2 mM, was present in all protocols in the reaction medium. BMS303141 was used to inhibit activity of ATP-citratelyase to stop it from metabolizing free citrate that accumulates to the reaction medium. 1,2,3-benzenetricarboxylic acid was used to stop citrate efflux from mitochondria. Saponine incubation time was 5 minutes. Cytochrome c and CAT were injected to the reaction medium right at the end of the experiment to assess the quality of mitochondrial inner and outer membranes. […]

In experiment [2] the test system is permeabilized human breast cancer fibers. As to the kind of experiment: Citrate efflux from permeabilized fibers derived from human breast cancer clinical sample. It counts as cell-based. As to the method:
In order to reach experiment targets, the sarcolemma and plasma membranes in skinned tumor fibers were completely permeabilized by saponin treatment keeping the mitochondrial membranes intact (both tumor and healthy tissue samples from the same patient were processed equally). Namely, skinned fibers were transferred into plastic vials with pre-cooled (on ice) Lahus-A (Table 8) containing 50 μg/ml saponin and incubated with mild stirring (at 40 rpm) for 30 min at 4° C. Permeabilized fibers were then washed in pre-cooled solution Lahus-B (Table 3) for 5 min under mild stirring; this washing procedure was performed three times to completely remove saponin and all soluble metabolites. The washed samples were placed into Lahus-B (Table 3) and kept in the same medium (at 4° C.) until use.
The experiments were carried out in an Oroboros oxygraph. Two parallel chambers on the same device were used. Reaction medium was Lahus-B (Table 3).
Saponine concetration suitable for viability of skinned breast cancer fibers was defined as 50 μg/ml. Malate, 2 mM, was present in all protocols in the reaction medium. BMS303141 was used to inhibit activity of ATP-citrate lyase to stop it from metabolizing free citrate that accumulates to the reaction medium. 1,2,3-benzenetricarboxylic acid was used to stop citrate efflux from mitochondria. Cytochorome c and CAT were injected to the reaction medium right at the end of the experiment to assess the quality of mitochondrial inner and outer membranes.
Duration of the induction phase: 1 hour.
Once the induction medium was ended, the reaction medium was transferred to 2.5 ml Eppendorf tube for centrifugation (14 000 rpm, 7 minutes). Fiber was removed from the reaction medium and weighted for calculations. The supernatant from the centrifugation was collected through syringe filter and stored on ice. Remaining debris was discarded as biological waste.
900 μl of each supernatant was used to enzymatically measure concentration of citrate as described before (Petrarulo et al, 1995).

`O=C(O)c1cccc(C(=O)O)c1C(=O)O` [1,2,3-BTC, 1,2,3-benzenetricarboxylic acid]: the citrate efflux is given as 1098 ng citrate per 10^6 cells per in experiment [1] (protocol 2: glutamate 5 mM + malate 2 mM, 1,2,3-BTC 1 mM, 1 hour induction (without inhibitor: 1428)); 1524 ng citrate per 10^6 cells per in experiment [1] (protocol 4: pyruvate 0.05 mM + malate 2 mM, 1,2,3-BTC 1 mM, 1 hour induction (without inhibitor: 5564)); 1156 ng citrate per 10^6 cells per in experiment [1] (protocol 6: PalCar 40 μM + malate 2 mM, 1,2,3-BTC 1 mM, 1 hour induction (without inhibitor: 3059)); 41.7** ng citrate/mg × 60 min in experiment [2] (protocol 2: Glut/Mal, 1,2,3-BTC 1 mM, cancer fibers, footnote: result below detection limit (without inhibitor: 144.1, 172.1)); 17.6** ng citrate/mg × 60 min in experiment [2] (protocol 4: Pyr/Mal, 1,2,3-BTC 1 mM, cancer fibers, footnote: result below detection limit (without inhibitor: 194.6)); 73.7 ng citrate/mg × 60 min in experiment [2] (protocol 6: Palcar/Mal, 1,2,3-BTC 1 mM, cancer fibers (without inhibitor: 158.7)). The “effect on citrate accumulation in the reaction medium” value in experiment [2] (permeabilized human breast cancer fibers, 1,2,3-BTC 1 mM) is “blocked the citrate accumulation in the reaction medium”.
